Values belong to the compound of their own block, whether it stands above or below them.
Target: T1, β-secretase(BACE) (Homo sapiens, UniProt P56817)
T1 construct: purchased Panvera
Assay: BACE FS1% Inhibition Assay
Type: biochemical
Conditions: FS1 substrate
How it was run: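 Human BACE (4 μg/mL working solution) preincubated 20 min at room temperature with compound, then FS1 substrate (300 μg/mL working solution) added and incubated 1 h at room temperature. Percent inhibition calculated at each compound concentration against blank and vehicle controls.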

T1 sequence (P56817 46-501): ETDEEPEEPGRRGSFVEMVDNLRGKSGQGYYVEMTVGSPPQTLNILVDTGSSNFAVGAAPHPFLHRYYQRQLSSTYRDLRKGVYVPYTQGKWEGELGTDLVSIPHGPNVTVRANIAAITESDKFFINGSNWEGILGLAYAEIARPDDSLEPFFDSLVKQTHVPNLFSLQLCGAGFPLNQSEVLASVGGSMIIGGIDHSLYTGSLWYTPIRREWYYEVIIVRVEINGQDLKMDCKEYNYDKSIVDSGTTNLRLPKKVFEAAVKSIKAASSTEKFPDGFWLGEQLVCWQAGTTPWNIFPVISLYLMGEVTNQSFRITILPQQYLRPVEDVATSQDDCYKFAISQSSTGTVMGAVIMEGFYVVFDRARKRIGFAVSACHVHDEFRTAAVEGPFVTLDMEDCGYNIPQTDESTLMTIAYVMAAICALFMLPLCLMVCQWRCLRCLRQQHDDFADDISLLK

Compound: NC1=Nc2ccc(C3=CCCCC3)cc2CN1CCNC(=O)C1CCC(C(F)(F)F)CC1 (stereo not drawn) [Compound 704]
- % Inhibition (FS) (0.3 μM test compound): <30%
- % Inhibition (FS) (1 μM test compound): <30%
- % Inhibition (FS) (3 μM test compound): <30%

Compound: CC(=O)N1CCC(C(=O)NCCN2Cc3cc(C4=CCCCC4)ccc3N=C2N)CC1 [Compound 705]
- % Inhibition (FS) (0.3 μM test compound): <30%
- % Inhibition (FS) (1 μM test compound): <30%
- % Inhibition (FS) (3 μM test compound): <30%

Compound: COC1CCCC(C(=O)NCCN2Cc3cc(C4=CCCC4)ccc3N=C2N)C1 (stereo not drawn) [Compound 706]
- % Inhibition (FS) (0.3 μM test compound): <30%
- % Inhibition (FS) (1 μM test compound): <30%
- % Inhibition (FS) (3 μM test compound): <30%

Compound: NC1=Nc2ccc(C3=CCCC3)cc2CN1CCNC(=O)C1CCC(C(F)(F)F)CC1 (stereo not drawn) [Compound 707]
- % Inhibition (FS) (0.3 μM test compound): <30%
- % Inhibition (FS) (1 μM test compound): <30%
- % Inhibition (FS) (3 μM test compound): <30%

Compound: CN(C(=O)CC[C@@H](C1CCCCC1)N1Cc2cc(Oc3ccccc3)ccc2N=C1N)C1CCC2(CC1)OCCO2 [Compound 710]
- % Inhibition (FS) (0.3 μM test compound): <30%
- % Inhibition (FS) (1 μM test compound): 68%
- % Inhibition (FS) (3 μM test compound): 126%

Compound: CN(C(=O)CC[C@@H](C1CCCCC1)N1Cc2cc(Oc3ccccc3)ccc2N=C1N)C1CCC(=O)CC1 [Compound 711]
- % Inhibition (FS) (0.3 μM test compound): <30%
- % Inhibition (FS) (1 μM test compound): 43%
- % Inhibition (FS) (3 μM test compound): 113%

Compound: COc1ccccc1-c1ccc2c(c1)CN([C@@H](CCC(=O)N(C)Cc1csc(-c3ccccc3)n1)C1CCCCC1)C(N)=N2 [Compound 716]
- % Inhibition (FS) (0.3 μM test compound): <30%
- % Inhibition (FS) (1 μM test compound): <30%
- % Inhibition (FS) (3 μM test compound): 72%

Compound: COc1ccccc1-c1ccc2c(c1)CN([C@@H](CCC(=O)N(C)Cc1cnn(-c3ccccc3)c1)C1CCCCC1)C(N)=N2 [Compound 717]
- % Inhibition (FS) (0.3 μM test compound): 33%
- % Inhibition (FS) (1 μM test compound): 39%
- % Inhibition (FS) (3 μM test compound): 72%

Compound: COc1ccccc1-c1ccc2c(c1)CN([C@@H](CCC(=O)N(C)Cc1cc(C)no1)C1CCCCC1)C(N)=N2 [Compound 718]
- % Inhibition (FS) (0.3 μM test compound): <30%
- % Inhibition (FS) (1 μM test compound): 30%
- % Inhibition (FS) (3 μM test compound): 114%

Compound: COc1ccccc1-c1ccc2c(c1)CN([C@@H](CCC(=O)N(C)Cc1cc(-c3ccccc3)on1)C1CCCCC1)C(N)=N2 [Compound 719]
- % Inhibition (FS) (0.3 μM test compound): 31%
- % Inhibition (FS) (1 μM test compound): <30%
- % Inhibition (FS) (3 μM test compound): 81%

Compound: CN(Cc1csc(-c2ccccc2)n1)C(=O)CC[C@@H](C1CCCCC1)N1Cc2cc(-c3ccccc3F)ccc2N=C1N [Compound 722]
- % Inhibition (FS) (0.3 μM test compound): 35%
- % Inhibition (FS) (1 μM test compound): 35%
- % Inhibition (FS) (3 μM test compound): 78%

Compound: CN(Cc1cc(-c2ccccc2)on1)C(=O)CC[C@@H](C1CCCCC1)N1Cc2cc(-c3ccccc3F)ccc2N=C1N [Compound 724]
- % Inhibition (FS) (0.3 μM test compound): 38%
- % Inhibition (FS) (1 μM test compound): <30%
- % Inhibition (FS) (3 μM test compound): 65%

Compound: CC(C)N1CCC(N(C)C(=O)CC[C@@H](C2CCCCC2)N2Cc3cc(Oc4ccccc4)ccc3N=C2N)CC1 [Compound 728]
- % Inhibition (FS) (0.3 μM test compound): 43%
- % Inhibition (FS) (1 μM test compound): 58%
- % Inhibition (FS) (3 μM test compound): 97%

Compound: CCOC(=O)C1CCC(N(C)C(=O)CCC(C2CCCCC2)N2Cc3cc(Oc4ccccc4)ccc3N=C2N)CC1 (stereo not drawn) [Compound 737]
- % Inhibition (FS) (0.3 μM test compound, 0.3 µM): 22%
- % Inhibition (FS) (1 μM test compound, 1 µM): 34%
- % Inhibition (FS) (3 μM test compound, 3 µM): 97%

Compound: CN(C(=O)CCC(C)(C)N1Cc2cc(Oc3ccccc3)ccc2N=C1N)C1CCCCC1 [Compound 738]
- % Inhibition (FS) (0.3 μM test compound): 14%
- % Inhibition (FS) (1 μM test compound): 28%
- % Inhibition (FS) (3 μM test compound): 61%

Compound: CN(C(=O)CCC(C1CCCCC1)N1Cc2cc(Oc3ccccc3)ccc2N=C1N)C1(C(=O)O)CCCCC1 (stereo not drawn) [Compound 741]
- % Inhibition (FS) (0.3 μM test compound): −48%
- % Inhibition (FS) (1 μM test compound): −38%
- % Inhibition (FS) (3 μM test compound): −25%

Continued, values first:

- % Inhibition (FS) (0.3 μM test compound): 51%
- % Inhibition (FS) (1 μM test compound): 88%
- % Inhibition (FS) (3 μM test compound): 99%
Compound: Cc1ccccc1-c1ccc2c(c1)CN(CCNC(=O)CCC(F)(F)F)C(N)=N2 [Compound 678]

- % Inhibition (FS) (0.3 μM test compound): 78%
- % Inhibition (FS) (1 μM test compound): 99%
- % Inhibition (FS) (3 μM test compound): 103%
Compound: Cc1ccccc1-c1ccc2c(c1)CN(CCNC(=O)CC(C)C(F)(F)F)C(N)=N2 (stereo not drawn) [Compound 679]

- % Inhibition (FS) (0.3 μM test compound): 42%
- % Inhibition (FS) (1 μM test compound): 75%
- % Inhibition (FS) (3 μM test compound): 90%
Compound: NC1=Nc2ccc(-c3ccccc3F)cc2CN1CCNC(=O)CCC(F)(F)F [Compound 680]

- % Inhibition (FS) (0.3 μM test compound): 67%
- % Inhibition (FS) (1 μM test compound): 100%
- % Inhibition (FS) (3 μM test compound): 103%
Compound: CC(CC(=O)NCCN1Cc2cc(-c3ccccc3F)ccc2N=C1N)C(F)(F)F (stereo not drawn) [Compound 681]

- % Inhibition (FS) (0.3 μM test compound): 39%
- % Inhibition (FS) (1 μM test compound): 77%
- % Inhibition (FS) (3 μM test compound): 97%
Compound: NC1=Nc2ccc(-c3ccccc3Cl)cc2CN1CCNC(=O)CCC(F)(F)F [Compound 682]

- % Inhibition (FS) (0.3 μM test compound): 64%
- % Inhibition (FS) (1 μM test compound): 86%
- % Inhibition (FS) (3 μM test compound): 102%
Compound: CC(CC(=O)NCCN1Cc2cc(-c3ccccc3Cl)ccc2N=C1N)C(F)(F)F (stereo not drawn) [Compound 683]

- % Inhibition (FS) (0.3 μM test compound): 33%
- % Inhibition (FS) (1 μM test compound): 38%
- % Inhibition (FS) (3 μM test compound): 78%
Compound: NC1=Nc2ccc(-c3ccccc3)cc2CN1CCNC(=O)CCC(F)(F)F [Compound 684]

- % Inhibition (FS) (0.3 μM test compound): 50%
- % Inhibition (FS) (1 μM test compound): 90%
- % Inhibition (FS) (3 μM test compound): 101%
Compound: CC(CC(=O)NCCN1Cc2cc(-c3ccccc3)ccc2N=C1N)C(F)(F)F (stereo not drawn) [Compound 685]

- % Inhibition (FS) (0.3 μM test compound): <30%
- % Inhibition (FS) (1 μM test compound): 73%
- % Inhibition (FS) (3 μM test compound): 80%
Compound: NC1=Nc2ccc(-c3ccc4ccccc4c3)cc2CN1CCNC(=O)CCC(F)(F)F [Compound 686]

- % Inhibition (FS) (0.3 μM test compound): <30%
- % Inhibition (FS) (1 μM test compound): 50%
- % Inhibition (FS) (3 μM test compound): 87%
Compound: NC1=Nc2ccc(-c3ccccc3F)cc2CN1CCNC(=O)C1CCOCC1 [Compound 687]

- % Inhibition (FS) (0.3 μM test compound): <30%
- % Inhibition (FS) (1 μM test compound): 36%
- % Inhibition (FS) (3 μM test compound): 81%
Compound: NC1=Nc2ccc(-c3ccccc3F)cc2CN1CCNC(=O)C1CCC(C(F)(F)F)CC1 (stereo not drawn) [Compound 688]

- % Inhibition (FS) (0.3 μM test compound): 33%
- % Inhibition (FS) (1 μM test compound): 82%
- % Inhibition (FS) (3 μM test compound): 102%
Compound: NC1=Nc2ccc(-c3ccccc3Cl)cc2CN1CCNC(=O)C1CCOCC1 [Compound 689]

- % Inhibition (FS) (0.3 μM test compound): <30%
- % Inhibition (FS) (1 μM test compound): <30%
- % Inhibition (FS) (3 μM test compound): 52%
Compound: NC1=Nc2ccc(-c3ccccc3Cl)cc2CN1CCNC(=O)C1CCC(C(F)(F)F)CC1 (stereo not drawn) [Compound 690]

- % Inhibition (FS) (0.3 μM test compound): <30%
- % Inhibition (FS) (1 μM test compound): <30%
- % Inhibition (FS) (3 μM test compound): 51%
Compound: CC(=O)N1CCC(C(=O)NCCN2Cc3cc(-c4ccccc4Cl)ccc3N=C2N)CC1 [Compound 691]

- % Inhibition (FS) (0.3 μM test compound): <30%
- % Inhibition (FS) (1 μM test compound): <30%
- % Inhibition (FS) (3 μM test compound): 84%
Compound: Cc1ccccc1-c1ccc2c(c1)CN(CCNC(=O)C1CCC(C(F)(F)F)CC1)C(N)=N2 (stereo not drawn) [Compound 694]

- % Inhibition (FS) (0.3 μM test compound): <30%
- % Inhibition (FS) (1 μM test compound): <30%
- % Inhibition (FS) (3 μM test compound): 54%
Compound: CC(=O)N1CCC(C(=O)NCCN2Cc3cc(-c4ccccc4C)ccc3N=C2N)CC1 [Compound 695]

- % Inhibition (FS) (0.3 μM test compound): <30%
- % Inhibition (FS) (1 μM test compound): 72%
- % Inhibition (FS) (3 μM test compound): 104%
Compound: COC1CCCC(C(=O)NCCN2Cc3cc(-c4ccccc4C)ccc3N=C2N)C1 (stereo not drawn) [Compound 696]

- % Inhibition (FS) (0.3 μM test compound): <30%
- % Inhibition (FS) (1 μM test compound): <30%
- % Inhibition (FS) (3 μM test compound): 63%
Compound: COc1ccccc1-c1ccc2c(c1)CN(CCNC(=O)C1CCOCC1)C(N)=N2 [Compound 697]

- % Inhibition (FS) (0.3 μM test compound): <30%
- % Inhibition (FS) (1 μM test compound): <30%
- % Inhibition (FS) (3 μM test compound): 64%
Compound: COc1ccccc1-c1ccc2c(c1)CN(CCNC(=O)C1CCC(C(F)(F)F)CC1)C(N)=N2 (stereo not drawn) [Compound 698]

- % Inhibition (FS) (0.3 μM test compound): 31%
- % Inhibition (FS) (1 μM test compound): 64%
- % Inhibition (FS) (3 μM test compound): 93%
Compound: COc1cccc(F)c1-c1ccc2c(c1)CN(CCNC(=O)C1CCOCC1)C(N)=N2 [Compound 699]

- % Inhibition (FS) (0.3 μM test compound): <30%
- % Inhibition (FS) (1 μM test compound): 36%
- % Inhibition (FS) (3 μM test compound): 85%
Compound: COc1cccc(F)c1-c1ccc2c(c1)CN(CCNC(=O)C1CCC(C(F)(F)F)CC1)C(N)=N2 (stereo not drawn) [Compound 700]

- % Inhibition (FS) (0.3 μM test compound): <30%
- % Inhibition (FS) (1 μM test compound): <30%
- % Inhibition (FS) (3 μM test compound): 54%
Compound: NC1=Nc2ccc(-c3ccccc3)cc2CN1CCNC(=O)C1CCC(C(F)(F)F)CC1 (stereo not drawn) [Compound 701]

- % Inhibition (FS) (0.3 μM test compound): <30%
- % Inhibition (FS) (1 μM test compound): <30%
- % Inhibition (FS) (3 μM test compound): <30%
Compound: CC(=O)N1CCC(C(=O)NCCN2Cc3cc(-c4ccccc4)ccc3N=C2N)CC1 [Compound 702]

- % Inhibition (FS) (0.3 μM test compound): <30%
- % Inhibition (FS) (1 μM test compound): 46%
- % Inhibition (FS) (3 μM test compound): 83%
Compound: COC1CCCC(C(=O)NCCN2Cc3cc(-c4ccccc4)ccc3N=C2N)C1 (stereo not drawn) [Compound 703]
